# Test results: patent US20260325502A1, “COMPOSITION FOR PREVENTING OR TREATING CANCER PAIN” (MARUISHI PHARMACEUTICAL CO., LTD., priority 2023, published 2026)
# Entries after “also recorded” stand apart in the source; their conditions may differ.
# Columns and labels:
# [1] = test system: cancer pain animal models; settings: pregabalin; Non-Patent Literature 2; cited from earlier work
# [2] = Non-Patent Literatures 2 and 8; cited from earlier work
# central nervous system = settings: rats; Table 2 in Non-Patent Literature 9; cited from earlier work
# [3] = test system: cancer pain model rats (MRMT-1 rat breast cancer cells, bone metastasis model); experiment: Measurement of pain threshold in bone metastasis cancer pain model rats (Dynamic Plantar Aesthesiometer); type: in vivo, Crl:CD (SD); settings: 10 mg/kg and 30 mg/kg, oral
# Description: Five-week-old female Crl:CD (SD) SPF rats (Charles River Japan) were injected with MRMT-1 cells (rat breast cancer cells) at 3×10^4 cells/20 μL/body into the medullary cavity at the proximal end of the diaphysis of the right tibia to create a bone metastasis model (day 0). On day 10 after the transplantation of the cancer cells (day 10), the rats were divided into 4 groups of 8 rats each: a control group (with administration of distilled water (trade name: Otsuka Distilled Water) manufactured by Otsuka Pharmaceutical Factory, Inc.), a 10 mg/kg compound A administration group, a 30 mg/kg compound A administration group, and a morphine administration group, as shown in Table 1 below. On day 11 after the transplantation of the cancer cells (day 11), each drug was orally or subcutaneously administered to the rats at a dose of 2 mL/kg. The pain threshold (g) of the plantar surface of the right hind paw was measured using a Dynamic Plantar Aesthesiometer (37450, Ugo Basile) under blinded conditions 1, 3, 6, and 24 hours after the administration. The average value of the pain threshold-time area under the curve (AUC) (g·hr) for 24 hours post-administration was determined for each group.
# mice = experiment: Measurement of spontaneous locomotor activity (Supermex); type: in vivo, mouse, ICR
# Description: Five-to six-week-old male ICR-SPF mice (Japan SLC, Inc.) were divided into 5 groups of 8 mice each: a control group (with administration of distilled water (trade name: Otsuka Distilled Water) manufactured by Otsuka Pharmaceutical Factory, Inc.), two 10 mg/kg compound A administration groups, and two 30 mg/kg compound A administration groups, as shown in Table 2 below. Compound A or distilled water at a dose of 10 mL/kg was orally administered to the mice. One or three hours after the administration of compound A or distilled water, the mice were transferred to a measurement cage, and spontaneous locomotor activity was measured for 30 minutes using Supermex (registered trademark) (Muromachi Kikai Co., Ltd.).
# rats = experiment: Measurement of coordinated motor ability (rotarod); type: in vivo, rat, SD
# Description: Five- to six-week-old male SD-SPF rats (Japan SLC, Inc.) were used in this experiment. The experimental schedule included training using a rotarod (SN445, Shinano Seisakusyo) for 3 days (6 times a day), starting from 3 days before the day of administration. On the day of administration, pre-values (time to stay on the rotarod before the administration of compound A or distilled water) were measured twice, and the rats that spent 180 seconds or more on the rotarod in either of the two measurements were selected. The rats were divided into 3 groups of 6 rats each: a control group (with administration of distilled water (trade name: Otsuka Distilled Water) manufactured by Otsuka Pharmaceutical Factory, Inc.), a 10 mg/kg compound A administration group, and a 30 mg/kg compound A administration group, as shown in Table 3 below. Compound A or distilled water was orally administered to the rats at a dose of 10 mL/kg, and the time to stay on the rotarod was measured 1, 3, 6, and 24 hours after the administration under the test conditions of 10 rotations/min with a cutoff of 180 seconds.
# serotonin 3 receptor = settings: Patent Literatures 1 and 2; cited from earlier work
# [4] = summary of Experiments 1 and 2, 10 to 30 mg/kg
SMILES,effect in cancer pain animal models [1],side effects [2],influence on central nervous system relative to analgesic dose (central nervous system),"cancer pain threshold compared to control group ([3]; single dose, right hind paw, measured 1, 3, 6 and 24 h after administration, Dunnett's test, critical value of 1%, n = 8, FIG. 1)","pain threshold-time area under the curve (AUC) compared to subcutaneous morphine ([3]; versus morphine 3 mg/kg subcutaneous, up to 24 h after administration)","changes in spontaneous locomotor activity compared to control group (mice; 10 mg/kg and 30 mg/kg, oral, 1 or 3 h after administration, measured for 30 min, Dunnett's test, critical value of 5%, n = 8, FIG. 2)",suppression of spontaneous locomotor activity at a dose that induces an analgesic effect (mice; [4]),"changes in coordinated motor ability (time to stay on the rotarod) compared to control group (rats; 10 mg/kg and 30 mg/kg, oral, 1, 3, 6 and 24 h after administration, 10 rotations/min, cutoff 180 s, Dunnett's or Steel's test, critical value of 5%, n = 6, FIG. 3)",suppression of coordinated motor ability at a dose that induces an analgesic effect (rats; [4]),activity at serotonin 3 receptor (serotonin 3 receptor)
CC(C)C[C@H](CN)CC(=O)O [Pregabalin],effective in cancer pain animal models,"sedative effects such as dizziness, drowsiness, and loss of consciousness",suppresses the functions of the central nervous system (inhibits coordinated motor ability) at a dose lower than that is required to exert an analgesic effect,,,,,,,
"NC1CCN(c2cccc(Cl)n2)CC1 [compound A, 1-(6-chloropyridin-2-yl) piperidin-4-amine]",,,,significant difference was observed; also recorded: significantly increased,no statistically significant difference,No statistical difference was observed; also recorded: no significant changes,does not suppress spontaneous locomotor activity,No statistically significant difference was observed; also recorded: no significant changes,does not suppress spontaneous locomotor activity or coordinated motor ability,serotonin 3 receptor agonist
